In US9193718B2, “Quinazoline derivative and application thereof” (FUJIAN INSTITUTE OF RESEARCH ON THE STRUCTURE OF MATTER, …, priority 2012, dated 2015):

Molecular target: T1, Tyrosine kinase (EGFR) (Homo sapiens, UniProt P00533)
T1 construct: made in house
Assay: EGFR tyrosine kinase inhibition by Enzyme-Linked Immunosorbent assay
Type: biochemical
Settings: compound at a concentration of 100 μM; ATP 5 μM; substrate poly(Glu,Tyr)4:1
From the text: Tyrosine kinase (EGFR) was expressed using a baculovirus expression system, and purified by using a Ni-NTA affinity chromatography. After tested, it was consistent with experimental standard. Poly(Glu,Tyr)4:1 (Sigma), Monoclonal Anti-Phosphotyrosine antibody PY99 (Santa Cruz), horseradish peroxidase-labeled goat anti-mouse IgG (Calbiochem), ATP, DTT, OPD (Amresco), microplates (Corning). Other reagents were all commercially available with analytical grade purity, which were not treated before use if no special instructions present. Isopropanol was dried with molecular sieves before use.
Quinazoline compounds represented by formula (I) and their pharmaceutically acceptable salts according to the present invention are used as EGFR inhibitors. The activity of the particularized compounds for inhibiting EGFR was determined by Enzyme-Linked Immunosorbent assay.
Detailed experimental procedure is as follows:
(1) Kinase reaction substrate poly(Glu,Tyr)4:1 was diluted to 20 μg/mL with potassium-free PBS, and the microplates were coated. After the reaction was for 12-16 h at 37° C., the liquid in the wells was removed.
(2) The plates were washed with T-PBS for three times, 10 min each time.
(3) The microplates were dried in an oven at 37.
(4) The samples to be tested were added into the wells of the coated microplates (wherein the samples to be tested were formulated to a 1×10^−2M stock solution with DMSO, and diluted to the desired concentration with reaction buffer before use. The resulted solution was added into the wells and then allowed to achieve the corresponding final concentration in 100 μL reaction system.
(5) the addition of ATP and tested tyrosine kinases
ATP solution diluted with reaction buffer (the final concentration of ATP is 5 μM) and the tested tyrosine kinases solution diluted with reaction buffer were added. The total volume of the reaction is 100 μL. Meanwhile the negative control wells and the control wells without enzyme were set up.
(6) The reaction system was placed in a wet box, and shaked for 1 hour at 37° C. shielding from light. After the reaction was complete, the plates were washed with T-PBS for three times.
(7) Antibody PY99 was added into each well (100 μL/well); and the plates were shaked for 30 min at 37° C. After the reaction was complete, the plates were washed with T-PBS for three times.
(8) 100 μL horseradish peroxidase-labeled goat anti-mouse IgG was added into each well, and the plates were shaked for 30 min at 37° C. The plates were washed with T-PBS for three times.
(9) 100 μL OPD developing liquid was added in each well, and was reacted for 1-10 min at room temperature shielding from light.
(10) 2M H2SO4 was added into each well to terminate the reaction. A490 value was determined using wavelength-tunable microplate reader. The inhibition ratio can be calculated by the following formula: […]
According to the above-described activity test method, the activity of inhibiting EGFR enzyme of the compounds represented by formula (I) or salts thereof were calculated.

| Molecule | EGFR inhibition rate (%) |
| --- | --- |
| Clc1ccccc1-c1cc(COc2ncnc3ccccc23)on1 [Compound Q-4] | 25.8 |
| COc1ccc(-c2cc(COc3ncnc4ccccc34)on2)cc1 [Compound Q-3] | 7.3 |
| Clc1ccc(-c2cc(COc3ncnc4ccccc34)on2)c(Cl)c1 [Compound Q-6] | 22.7 |
| Brc1ccc(-c2cc(COc3ncnc4ccccc34)on2)cc1 [Compound Q-7] | 15.7 |
| COc1cc2ncnc(OCc3cc(-c4ccc(Cl)cc4)no3)c2cc1OC [Compound Q-19] | 14.5 |
| Clc1ccc(-c2cc(COc3ncnc4ccccc34)on2)cc1 [Compound Q-5] | 16.7 |
| COc1ccc(-c2cc(COc3ncnc4cc(OC)c(OC)cc34)on2)cc1 [Compound Q-17] | 47.0 |
| c1ccc(-c2cc(COc3ncnc4ccccc34)on2)cc1 [Compound Q-1, 4-((3-phenyl-isoxazol-5-yl)-methoxy-)-quinazoline] | 18.0 |
| COc1cc2ncnc(OCc3cc(-c4ccccc4Cl)no3)c2cc1OC [Compound Q-18] | 1.2 |
| COCCOc1cc2ncnc(OCc3cc(-c4ccccc4)no3)c2cc1OCCOC [Compound Q-29, (6,7-bis(2-methoxyethoxy))-4-((3-phenyl-isoxazol-5-yl)-methoxy-)-quinazoline] | 27.7 |
| COc1cc2ncnc(OCc3cc(-c4ccccc4)no3)c2cc1OC [Compound Q-15, 6,7-dimethoxy-4-((3-phenyl-isoxazol-5-yl)-methoxy-)-quinazoline] | 30.7 |

Results, then the molecule that gave them:

| EGFR inhibition rate (%) | Molecule |
| --- | --- |
| 11.8 | COCCOc1cc2ncnc(OCc3cc(-c4ccccc4Cl)no3)c2cc1OCCOC [Compound Q-32] |
| 29.8 | COc1cc2ncnc(OCc3cc(-c4ccc(Cl)cc4Cl)no3)c2cc1OC [Compound Q-20] |
| 30.9 | COc1cc2ncnc(OCc3cc(-c4ccc(Br)cc4)no3)c2cc1OC [Compound Q-21] |
| 14.1 | (6,7-bis(2-methoxyethoxy))-4-((3-(4-chlorophenyl)-isoxazol-5-yl))-methoxy-)-quinazoline [Compound Q-33] |
| 6.4 | COCCOc1cc2ncnc(OCc3cc(-c4ccc(Br)cc4)no3)c2cc1OCCOC [Compound Q-35] |
| 7.8 | COCCOc1cc2ncnc(OCc3cc(-c4ccc(Cl)cc4Cl)no3)c2cc1OCCOC [Compound Q-34, (6,7-bis(2-methoxyethoxy))-4-((3-(2,4-dichlorophenyl)-isoxazol-5-yl)-methoxy-)-quinazoline] |
| 20.4 | COCCOc1cc2ncnc(OCc3cc(-c4ccc(C)cc4)no3)c2cc1OCCOC [Compound Q-30, (6,7-bis(2-methoxyethoxy))-4-((3-(4-methylphenyl)-isoxazol-5-yl)-methoxy-)-quinazoline] |
| 38.2 | COCCOc1cc2ncnc(OCc3cc(-c4ccc(OC)cc4)no3)c2cc1OCCOC [Compound Q-31] |
